Laboratory results published in patent US9346761B2, “Arginine methyltransferase inhibitors and uses thereof” (Epizyme, Inc., priority 2013, dated 2016).

Columns and labels:
[1] = target: T1, Full-length human PRMT6 (Homo sapiens, UniProt Q96LA8); assay: PRMT6 biochemical assay (3H-SAM Flashplate, peptide substrate)
T1 construct: Flag-PRMT6-His was eluted with 200 ug/ml FLAG peptide in the same buffer; made in house; host or cells: HEK 293F cells (BacMam virus, pFastBacMam)
Summary of the method: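 Flag-PRMT6-His from baculovirus-infected cells, preincubated with compound 30 min at room temperature, then SAM/3H-SAM and biotinylated H4 36-50 peptide added; 20 mM Bicine pH 7.6, TCEP, BSG, Tween 20. Quenched with cold SAM, captured on streptavidin Flashplates; % inhibition from SAH/DMSO controls, 3- or 4-parameter IC50 fit.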

[2] = target: T2, Full-length human PRMT8 (Homo sapiens, UniProt Q9NR22); assay: PRMT8 biochemical assay (3H-SAM Flashplate, peptide substrate)
T2 construct: Full-length human PRMT8 (NM_019854.4) isoform 1 transcript clone; made in house
T2 sequence (Q9NR22 whole entry, canonical isoform): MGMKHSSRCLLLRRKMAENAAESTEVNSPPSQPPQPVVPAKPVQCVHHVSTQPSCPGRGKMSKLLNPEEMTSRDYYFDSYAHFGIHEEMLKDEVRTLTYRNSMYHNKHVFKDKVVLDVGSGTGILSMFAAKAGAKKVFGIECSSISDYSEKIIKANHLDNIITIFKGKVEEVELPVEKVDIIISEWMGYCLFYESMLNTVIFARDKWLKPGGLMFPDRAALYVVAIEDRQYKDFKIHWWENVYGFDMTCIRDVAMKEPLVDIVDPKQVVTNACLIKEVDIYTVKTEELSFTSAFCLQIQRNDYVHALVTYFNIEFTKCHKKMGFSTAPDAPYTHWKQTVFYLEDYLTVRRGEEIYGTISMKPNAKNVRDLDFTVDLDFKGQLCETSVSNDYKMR
Summary of the method: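 E. coli-expressed PRMT8, GST-cleaved, was preincubated with compound for 30 min at room temperature in 20 mM Bicine pH 7.6, 1 mM TCEP, 0.005% BSG, 0.002% Tween 20. ³H-SAM and biotinylated histone H4 31-45 peptide then started methylation.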

T1 sequence (Q96LA8 with tags, fused parts or gaps): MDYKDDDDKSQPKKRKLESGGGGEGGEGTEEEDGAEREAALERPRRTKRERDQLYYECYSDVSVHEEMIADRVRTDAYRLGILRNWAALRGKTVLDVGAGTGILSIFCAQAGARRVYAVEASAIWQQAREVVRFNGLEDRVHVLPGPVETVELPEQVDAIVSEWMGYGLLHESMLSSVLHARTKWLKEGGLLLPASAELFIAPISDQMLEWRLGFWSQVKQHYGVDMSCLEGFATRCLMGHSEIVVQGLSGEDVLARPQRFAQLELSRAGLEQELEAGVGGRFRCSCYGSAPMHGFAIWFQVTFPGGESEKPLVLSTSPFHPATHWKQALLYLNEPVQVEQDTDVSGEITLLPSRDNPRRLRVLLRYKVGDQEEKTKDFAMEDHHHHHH

SMILES | IC50 [1] [nM] | IC50 [2] [nM]
CCN(CCN)Cc1c[nH]nc1-c1ccc(F)cc1 [Compound 62] | < 100 | 101 to 1000
CCCN(CCN)Cc1c[nH]nc1-c1ccc(F)cc1 [Compound 63] | 1010 to 3000 | 3010 to 10000
COCCn1ncc(CN(C)CCN(C)C)c1-c1ccc(F)cc1 [Compound 64] | 1010 to 3000 | > 10000
CN(CCN)Cc1cnn(CCO)c1-c1ccc(F)cc1 [Compound 65] | 101 to 1000 | 3010 to 10000
CN(CCN)Cc1cn(CCO)nc1-c1ccc(F)cc1 [Compound 66] | 1010 to 3000 | 3010 to 10000
CN(CCN)Cc1c[nH]nc1-c1ccc(C#N)cc1 [Compound 68] | < 100 | 101 to 1000
CN(CCN)Cc1n[nH]cc1-c1ccc(F)cc1 [Compound 69] | < 100 | 1010 to 3000
CN(CCN)Cc1c[nH]nc1-c1cccc(C#N)c1 [Compound 70] | < 100 | 1010 to 3000
CN(CCN)Cc1c[nH]nc1-c1cccc(F)c1 [Compound 71] | < 100 | 101 to 1000
CN(CCN)Cc1c[nH]nc1-c1ccccc1F [Compound 72] | < 100 | 3010 to 10000
CN(CCN)Cc1c[nH]nc1-c1ccccc1 [Compound 73] | < 100 | 101 to 1000
CN(CCN)Cc1c[nH]nc1-c1ccc(C(C)(C)C)cc1 [Compound 74] | < 100 | 101 to 1000
CC(C)N(CCN)Cc1c[nH]nc1-c1ccc(F)cc1 [Compound 75] | 1010 to 3000 | 1010 to 3000
CN(CCN)Cc1cn(CC(O)CO)nc1-c1ccc(F)cc1 (centres unmarked) [Compound 76] | 1010 to 3000 | > 10000
CN(CCN)Cc1cn(C2COC2)nc1-c1ccc(F)cc1 [Compound 77] | 101 to 1000 | 1010 to 3000
NCCN(Cc1c[nH]nc1-c1ccc(F)cc1)C1CC1 [Compound 78] | < 100 | 1010 to 3000
CN(CCN)Cc1cn(CC2COC2)nc1-c1ccc(F)cc1 [Compound 79] | – | > 10000

SMILES | IC50 [1] [nM] | IC50 [2] [nM]
CN(CCN)Cc1cnn(CC2COC2)c1-c1ccc(F)cc1 [Compound 80] | – | > 10000
CN(CCN)Cc1cnn(C2COC2)c1-c1ccc(F)cc1 [Compound 81] | 101 to 1000 | 3010 to 10000
CN(CCN)Cc1c[nH]nc1-c1ccc(N2CCNCC2)cc1 [Compound 82] | 101 to 1000 | 1010 to 3000
CN(CCN)Cc1nn(C)cc1-c1ccc(C#N)cc1 [Compound 83] | < 100 | 101 to 1000
CN(CCN)Cc1c(-c2ccc(C#N)cc2)cnn1C [Compound 84] | – | > 10000
CN(CCN)Cc1c[nH]nc1-c1ccc(C(F)(F)F)cc1C(F)(F)F [Compound 85] | 101 to 1000 | 3010 to 10000
CN(CCN)Cc1c[nH]nc1-c1ccc(Cl)cc1Cl [Compound 86] | < 100 | 101 to 1000
COc1ccc(-c2n[nH]cc2CN(C)CCN)c(OC)c1 [Compound 87] | 101 to 1000 | 3010 to 10000
Cc1ccc(-c2n[nH]cc2CN(C)CCN)c(C)c1 [Compound 88] | < 100 | 1010 to 3000
CN(CCN)Cc1c[nH]nc1-c1ccc(F)cc1Cl [Compound 89] | < 100 | 1010 to 3000
Cc1ccc(-c2n[nH]cc2CN(C)CCN)c(Cl)c1 [Compound 90] | < 100 | 1010 to 3000
Cc1ccc(Cl)c(-c2n[nH]cc2CN(C)CCN)c1 [Compound 91] | 101 to 1000 | 3010 to 10000
CN(CCN)Cc1c[nH]nc1-c1ccc(C(F)(F)F)cc1 [Compound 92] | < 100 | 101 to 1000
CN(CCN)Cc1c[nH]nc1-c1ccc(OC(F)(F)F)cc1 [Compound 93] | < 100 | < 100
CN(CCN)Cc1c[nH]nc1-c1ccc(OC(F)F)cc1 [Compound 94] | < 100 | 101 to 1000
CC(C)Oc1ccc(-c2n[nH]cc2CN(C)CCN)cc1Cl [Compound 168] | < 100 | –
